# Measured values: publication PMC4977052, “On the Utility of ToxCast™ and ToxPi as Methods for Identifying New Obesogens” (Environmental Health Perspectives, 2016)
# Where two headings read alike, the source gives them in different places.
# How the values were obtained:
# GAL4-hRXRα = molecular target: T1, GAL4-hRXRα (Homo sapiens, UniProt P19793); assay: GAL4-hRXRα activation, transient transfection luciferase reporter in COS7 cells; type: cell-based; conditions: COS7, 100 μM through 0.137 μM
# T1 construct: expressed in transfected cells; host or cells: COS7
# Description: (§1) pCMX-Gal4, pCMX-Gal4-mPPARγ, and pCMX-Gal4-hRXRα were previously described ([Grün et al. 2006]). Transient transfections were performed in COS7 cells as described ([Chamorro-García et al. 2012]). Briefly, COS7 cells were seeded at 15,000 cells per well in 96-well tissue culture plates in 10% calf bovine serum. The following day, cells were transfected in Opti-MEM at ~ 90% confluency. One microgram of CMX-GAL4 effector plasmid was co-transfected with 5 μg tk-(MH100)4-luciferase reporter and 5 μg of CMX-β-galactosidase transfection control plasmids in Opti-MEM® using Lipofectamine® 2000 reagent (Invitrogen™ Life Technologies, Carlsbad, CA, USA), following the manufacturer’s recommended protocol. All chemicals were solvated in dimethyl sulfoxide (DMSO). After overnight incubation, the medium was replaced with Dulbecco’s Modified Eagle Medium (DMEM; HyClone, Logan, UT, USA), 10% resin charcoal stripped fetal bovine serum (FBS) plus ligands at concentrations indicated in the figure legends for an additional 24 hr. DMSO concentration was maintained at 0.05% across all chemical treatments. Cells were lysed and assayed for luciferase and β-galactosidase activity as previously described ([Forman et al. 1995]). All transfections were performed in triplicate and reproduced in multiple experiments. Data are reported as fold induction or reduction over vehicle ([…]) controls ± SEM (standard error of the mean) using standard propagation of error ([Bevington and Robinson 2003]). […] The EC50, EC10, IC50, and IC10 values from NCGC and ToxCast™ are reported from gain AC50 and AC10 values in the ToxCast™ 2014 release ([Filer et al. 2014]).
# (§2) Figure 4 ToxPi Chemical Activity on PPARγ and RXRα. The ability of a graded dose series of ToxPi chemicals to activate (A) GAL4-mPPARγ or (B) GAL4-hRXRα was tested in transiently transfected COS7 cells. (A, B) Data points are averages of triplicate transfections (three biological replicates). […] ToxPi chemicals were tested in 3-fold serial dilutions from 100 μM through 0.137 μM, with the final data point being 0.05% DMSO. Data are depicted as fold induction over vehicle (0.05% DMSO) controls ± SEM. (A) Rosiglitazone serves as a positive control activator for GAL4-mPPARγ. (B) LG100268 (2-[1-(3,5,5,8,8-Pentamethyl-5,6,7,8-tetrahydro-2-naphthyl)cyclopropyl]pyridine-5-carboxylic acid) serves as a positive control activator for GAL4-hRXRα. (C) EC50 and EC10 values calculated from A and B are reported and compared to other assays (see Figure S1). ATG, Attagene GAL-PPARγ or GAL-RXRα activation assay; NCGC, GeneBLAzer® GAL-PPARγ or GAL-RXRα activation assays. Triphenyltin was previously published ([Kanayama et al. 2005]).
# Human PPARγ = conditions: cited from earlier work
# 3T3-L1 preadipocytes = assay: 3T3-L1 adipogenesis assay (lipid accumulation, adipogenic gene expression); type: cell-based; conditions: 0.02-20 μM, 5 days after MDI induction
# Description: 3T3-L1 cells (ATCC) were maintained in high-glucose DMEM supplemented with 10% fetal bovine serum, 2 mM L-glutamine, 50 IU/mL penicillin, and 50 μg/mL streptomycin. A total of 2 × 10^4 cells per well were seeded in 12-well plates. After 48 hr, cells were exposed to the adipogenic cocktail MDI (500 μM isobutylmethylxanthine, 0.25 nM dexamethasone and 5 μg/mL insulin), 8 μg/mL biotin and 8 μg/mL pantothenate for 2 days. Induction media was removed and cells were exposed to test chemicals during 5 days, replacing the media every 2 days. Rosiglitazone (ROSI) and tributyltin (TBT) were used as positive controls at 100 nM and 50 nM final concentrations, respectively. All ToxCast™ chemicals were tested at 0.02, 0.2, 2, and 20 μM, and DMSO concentration was maintained at 0.1% across all treatments. If the chemical was toxic at 20 μM, we repeated the experiment at 10 μM.
# Cells were either fixed in 3.7% formaldehyde in phosphate-buffered saline (PBS) for 30 min at room temperature (RT) for lipid quantitation, or homogenized in TriPure (Roche, Mannheim, Germany) for gene expression analysis. For lipid quantitation, fixed cells were washed twice with PBS and maintained in PBS overnight at 4°C to release residual phenol red. Background of cells were measured prior to staining. Cells were stained with 1 μg/mL Nile red (CAS No. 7385-67-3) (to detect lipid accumulation) and 1 μg/mL Hoechst 33342 (ThermoFisher Scientific) (to detect nuclei as a surrogate for cell number) in PBS for 15 min in the dark at RT and washed twice with PBS. […] Background values of Hoechst and Nile red were subtracted from the RFUs after staining and the ratio RFUNile Red:RFUHoechst was calculated. Data are represented as mean ± SEM. Total RNA was isolated using TriPure (Roche) as recommended by the manufacturer. Reverse transcription and quantitative real-time RT-PCR (QPCR) were performed using Transcriptor RT and SYBR® Green Master Mix (Roche). cDNA was quantitated in a LightCycler® 480 System (Roche Diagnostics, Basel, Switzerland) using primer sets listed in Table S4. Each primer set amplified a single band as determined by gel electrophoresis and melting curve analysis. QPCR data were analyzed using the 2^ΔΔCt method ([Livak and Schmittgen 2001]) relative to ribosomal protein 36b4, normalizing to 0.1% DMSO vehicle. Error bars represent the SEM from four to six biological replicates calculated using standard propagation of error ([Bevington and Robinson 2003]).
# GAL4-mPPARγ [1] = molecular target: T2, GAL4-mPPARγ (Mus musculus, UniProt P37238); assay: GAL4-mPPARγ antagonism in competition with 50 nM rosiglitazone, transiently transfected COS7 cells; type: cell-based
# T2 construct: expressed in transfected cells; host or cells: COS7
# Description: as §1
# (§3) Figure 1 ToxCast™ Chemical Activity on PPARγ. The ability of a graded dose series of ToxCast™ chemicals to (A) activate or (B) antagonize GAL4-mPPARγ was tested in transiently transfected COS7 cells. (A, B) Data points are averages of triplicate transfections (three biological replicates). […] Data are depicted as (A) fold induction or (B) reduction over vehicle (0.05% DMSO) controls ± SEM. (A) ToxCast™ chemicals were tested in 3-fold serial dilutions from 100 μM through 0.137 μM, with the final data point being 0.05% DMSO. Rosiglitazone serves as a positive control activator. (B) ToxCast™ chemicals were tested in 3-fold serial dilutions from 100 μM, in competition with 50 nM rosiglitazone (Rosi). […] (C) EC50, EC10, IC50, and IC10 values calculated from A and B are reported and compared to commercial assays (see Figure S1). Note: ATG, Attagene GAL-PPARγ activation assay; NCGC, GeneBLAzer® agonist (EC values) or antagonist (IC values) assays. Triphenyltin was previously published ([Kanayama et al. 2005]).
# GAL4-mPPARγ [2] = molecular target: T2, GAL4-mPPARγ; assay: GAL4-mPPARγ activation, transient transfection luciferase reporter in COS7 cells; type: cell-based; conditions: COS7, 100 μM through 0.137 μM
# Description: as §1, §3, §2
# PPARγ [3] = system: PPARγ; parameters: method as in Filer et al. 2014; conditions: ref Filer et al. 2014, cited from earlier work
# PPARγ [4] = conditions: cited from earlier work
# COS7 cells = assay: Cytotoxicity in transfected COS7 cells measured as decreased β-galactosidase activity; conditions: transfected COS7 cells, 24 hr
# Description: as §1, §3
# PPARγ [5] = conditions: ToxCast 2014 release, ref Filer et al. 2014, cited from earlier work
# T2 sequence (P37238 with tags, fused parts or gaps limits assumed): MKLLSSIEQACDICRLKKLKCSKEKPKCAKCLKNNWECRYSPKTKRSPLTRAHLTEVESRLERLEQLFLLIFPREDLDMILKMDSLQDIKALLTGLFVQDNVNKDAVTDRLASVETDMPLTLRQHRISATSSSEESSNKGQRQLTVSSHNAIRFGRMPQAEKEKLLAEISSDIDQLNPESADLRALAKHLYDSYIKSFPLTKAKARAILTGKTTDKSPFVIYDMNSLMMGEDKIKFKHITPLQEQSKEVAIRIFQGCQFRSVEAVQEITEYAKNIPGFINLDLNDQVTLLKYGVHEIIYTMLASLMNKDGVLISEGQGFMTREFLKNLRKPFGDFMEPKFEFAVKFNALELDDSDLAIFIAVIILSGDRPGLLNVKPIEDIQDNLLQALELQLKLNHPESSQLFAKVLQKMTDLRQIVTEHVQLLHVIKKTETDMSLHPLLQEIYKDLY
# T1 sequence (P19793 with tags, fused parts or gaps limits assumed): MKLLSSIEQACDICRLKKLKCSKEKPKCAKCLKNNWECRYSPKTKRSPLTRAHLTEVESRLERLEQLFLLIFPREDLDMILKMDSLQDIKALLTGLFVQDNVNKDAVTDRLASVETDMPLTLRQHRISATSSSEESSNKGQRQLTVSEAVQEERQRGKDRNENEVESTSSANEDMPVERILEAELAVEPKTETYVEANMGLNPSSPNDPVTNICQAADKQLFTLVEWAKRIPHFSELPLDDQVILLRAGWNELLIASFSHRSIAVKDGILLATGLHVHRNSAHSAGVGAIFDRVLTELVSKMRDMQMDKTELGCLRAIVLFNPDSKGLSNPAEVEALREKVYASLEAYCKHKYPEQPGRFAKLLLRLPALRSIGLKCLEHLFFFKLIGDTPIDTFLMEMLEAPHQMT
structure (smiles),measurement,setting,value
"O=C(O)COc1ccc(Cl)cc1Cl [2,4-D, 2,4-dichlorophenoxyacetic acid]",Activation of RXRα,GAL4-hRXRα,inactive
CCc1cccc(CC)c1N(COC)C(=O)CCl [Alachlor],AC50,"Human PPARγ; PPARγ direct binding, NA = not active, ref Filer et al. 2014, read-out: NVS Agonist AC50, 2014 Release",24.9 µM
same,AC50,"Human PPARγ; PPARγ direct binding, NA = not active, ref Knudsen et al. 2011, read-out: NVS Agonist AC50, 2011 Release",43 µM
same,Adipogenesis 3T3-L1 (result in words),3T3-L1 preadipocytes,Negative
same,AC50,"GAL4-mPPARγ [1]; Activation AC50 (PPARγ antagonists), Cos-7 transient transfection, competition with 50 nM rosiglitazone",4.48 µM
same,Antagonism of PPARγ,"GAL4-mPPARγ [1]; COS7, competition against 50 nM rosiglitazone",weak antagonists
same,IC50,"GAL4-mPPARγ [1]; COS7, in competition with 50 nM rosiglitazone",4.48 µM
same,"PPARγ antagonists: IC10, Fig 1B","GAL4-mPPARγ [1]; COS7, in competition with 50 nM rosiglitazone, computed from IC50",0.78 µM
same,Activation COS7 (result in words): PPARγ antagonist,"GAL4-mPPARγ [1]; Cos-7 transient transfection, competition with 50 nM rosiglitazone",PPARγ antagonist
same,Activation of GAL4-PPARγ (text),GAL4-mPPARγ [2],did not activate PPARγ
same,"PPARγ antagonists: IC10, NCGC","PPARγ [3]; AC10, ToxCast 2014 release",0.15 µM
same,AC50,"PPARγ [3]; PPARγ, NA = not active, read-out: NCGC Antag. AC50, 2014 Release",3.2 µM
same,IC50,"PPARγ [3]; read-out: PPARγ antagonists: IC50, NCGC, gain AC50, ToxCast 2014 release",3.19 µM
same,AC50,"PPARγ [4]; PPARγ, NA = not active, ref Filer et al. 2014, read-out: ATG Agonist AC50, 2014 Release",2 µM
same,AC50,"PPARγ [4]; PPARγ, NA = not active, ref Knudsen et al. 2011, read-out: ATG Agonist AC50, 2011 Release",3.7 µM
same,Concentration at which cytotoxicity (decreased β-galactosidase activity) was observed,COS7 cells,100 µM
CCNc1nc(Cl)nc(NC(C)C)n1 [Atrazine],AC50,PPARγ [5]; read-out: Tox21/NCGC AC50 (panel A),0.2 µM
same,AC50,PPARγ [5]; read-out: Tox21/NCGC AC50 (panel B),0.2 µM
same,AC50,"Human PPARγ; direct binding, ToxCast 2014 release, ref Filer et al. 2014, read-out: NovaScreen AC50 (panel A)",0.3 µM
same,AC50,"Human PPARγ; direct binding, ToxCast 2014 release, ref Filer et al. 2014, read-out: NovaScreen AC50 (panel B)",0.3 µM
same,Activation of GAL4-PPARγ (text),GAL4-mPPARγ [2],inactive
same,AC50,"PPARγ [4]; ToxCast 2014 release, ref Filer et al. 2014, read-out: Attagene AC50 (panel A, w/o Z-Score Correction ranking)",15.2 µM
same,AC50,"PPARγ [4]; ToxCast 2014 release, ref Filer et al. 2014, read-out: Attagene AC50 (panel B, with Z-Score Correction ranking)",15.2 µM
same,Activation of RXRα,GAL4-hRXRα,inactive
